Laboratory results taken from patent US5705498A, “Piperidine derivatives as 5-HT4 receptor antagonists” (SmithKline Beecham plc., priority 1992, dated 1998).

Biological target: T1, 5-HT4 receptor (Cavia porcellus, UniProt O70528)
T1 construct: Longitudinal muscle-myenteric plexus preparations, approximately 3 cm long, are obtained from the distal colon region; from tissue; host or cells: guinea-pig distal colon, longitudinal muscle-myenteric plexus preparation
Assay: Guinea pig colon longitudinal muscle-myenteric plexus, antagonism of 5-HT-evoked contraction
Details: guinea-pig distal colon; contraction evoked by 5-HT; methiothepin 10^-7 M and granisetron 10^-6 M present; read-out: pIC50 (-log concentration of antagonist which reduces the contraction by 50%) (converted)
Protocol: Male guinea-pigs, weighing 250-400 g are used. Longitudinal muscle-myenteric plexus preparations, approximately 3 cm long, are obtained from the distal colon region. These are suspended under a 0.5 g load in isolated tissue baths containing Krebs solution bubbled with 5% CO2 in O2 and maintained at 37° C. In all experiments, the Krebs solution also contains methiothepin 10^-7 M and granisetron 10^-6 M to block effects at 5-HT1, 5-HT2 and 5-HT3 receptors.
After construction of a simple concentration-response curve with 5-HT, using 30 s contact times and a 15 min dosing cycle, a concentration of 5-HT is selected so as to obtain a contraction of the muscle approximately 40-70% maximum(10^-9 M approx). The tissue is then alternately dosed every 15 min with this concentration of 5-HT and then with an approximately equi-effective concentration of the nicotine receptor stimulant, dimethylphenylpiperazinium (DMPP). After obtaining consistent responses to both 5-HT and DMPP, increasing concentrations of a putative 5-HT4 receptor antagonist are then added to the bathing solution. The effects of this compound are then determined as a percentage reduction of the contractions evoked by 5-HT or by DMPP. […] A compound which reduces the response to 5-HT but not to DMPP is believed to act as a 5-HT4 receptor antagonist.

T1 sequence (O70528 whole entry): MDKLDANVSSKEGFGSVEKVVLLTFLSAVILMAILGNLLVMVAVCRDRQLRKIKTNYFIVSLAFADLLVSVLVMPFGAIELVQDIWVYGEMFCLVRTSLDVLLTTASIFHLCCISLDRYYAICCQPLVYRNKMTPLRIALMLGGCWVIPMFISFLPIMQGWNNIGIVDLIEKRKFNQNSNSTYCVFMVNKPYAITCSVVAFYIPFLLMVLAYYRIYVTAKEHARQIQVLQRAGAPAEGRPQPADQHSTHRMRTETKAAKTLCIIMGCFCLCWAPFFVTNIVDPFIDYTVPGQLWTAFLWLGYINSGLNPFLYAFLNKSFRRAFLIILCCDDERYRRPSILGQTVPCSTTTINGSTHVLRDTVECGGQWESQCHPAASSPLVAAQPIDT

IC50: < 1 nM
SMILES: Nc1c(Cl)cc(C(=O)OCC2CCN(Cc3cccnc3)CC2)c2c1OCCO2 [Example E1, 5-(1-(3-Pyridylmethyl)-4-piperidinyl)methyl-8-amino-7-chloro-1,4-benzodioxancarboxylate]
